Results as given in PubChem BioAssay (NCI).
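Results reflect a 48-hour exposure of cells in 96-well plates to compound at five concentrations. GI50 = concentration required for 50% inhibition of growth. TGI is the concentration that stops growth completely.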

Experiments:
Test in all cases: NCI-60 cell line screen, 48 h
MALME-3M melanoma = test system: MALME-3M melanoma
HOP-92 NSCLC = test system: HOP-92 NSCLC
HCT-116 colon = test system: HCT-116 colon
NCI-H23 lung = test system: NCI-H23 lung
OVCAR-4 ovarian = test system: OVCAR-4 ovarian
SNB-19 CNS = test system: SNB-19 CNS
UACC-257 melanoma = test system: UACC-257 melanoma
HCC-2998 colon = test system: HCC-2998 colon
A549 NSCLC = test system: A549 NSCLC
MOLT-4 leukemia = test system: MOLT-4 leukemia
UO-31 renal = test system: UO-31 renal
SK-MEL-5 melanoma = test system: SK-MEL-5 melanoma
OVCAR-3 ovarian = test system: OVCAR-3 ovarian
M14 melanoma = test system: M14 melanoma
SK-OV-3 ovarian = test system: SK-OV-3 ovarian

| Structure (SMILES) | TGI (MALME-3M melanoma) | TGI (HOP-92 NSCLC) | TGI (HCT-116 colon) | TGI (NCI-H23 lung) | TGI (OVCAR-4 ovarian) | TGI (SNB-19 CNS) | TGI (UACC-257 melanoma) | TGI (HCC-2998 colon) | TGI (A549 NSCLC) | TGI (MOLT-4 leukemia) | TGI (UO-31 renal) | TGI (SK-MEL-5 melanoma) | TGI (OVCAR-3 ovarian) | TGI (M14 melanoma) | TGI (SK-OV-3 ovarian) | GI50 (HCT-116 colon) | GI50 (HCC-2998 colon) | GI50 (MOLT-4 leukemia) | GI50 (UO-31 renal) | GI50 (M14 melanoma) |
| --- | --- | --- | --- | --- | --- | --- | --- | --- | --- | --- | --- | --- | --- | --- | --- | --- | --- | --- | --- | --- |
| Cc1cc(C)c(S(=O)(=O)N(CCCCN)OCCCN)c(C)c1 | 36.3 µM | 34.5 µM | 30.9 µM | 43.2 µM | 32.3 µM | 34.5 µM | 30.2 µM | 5.59 µM | 36.1 µM | 28.6 µM | 31.8 µM | 39.9 µM | 36.3 µM | 35.9 µM | 31.8 µM |  |  |  |  |  |
| OC(c1ccc(Cl)cc1)(c1ccc(Cl)cc1)C(O)(c1ccc(Cl)cc1)c1ccc(Cl)cc1 |  |  | > 100 µM |  |  |  |  | > 100 µM |  | > 100 µM | > 100 µM |  |  | > 100 µM |  | 2.02 µM | 2.56 µM | 3.18 µM | 2.89 µM | 3.23 µM |
| COc1cc(C2C3=C(CCC3=O)Oc3cc4c(cc32)OCO4)cc(OC)c1OC (stereo not drawn) | > 100 µM | 6.47 µM | > 100 µM | > 100 µM | > 100 µM | > 100 µM | > 100 µM |  | > 100 µM |  | > 100 µM | 15.2 µM | 0.381 µM | > 100 µM | > 100 µM |  |  |  |  |  |
